{"source": "patent US20230346820A1", "about": "“METHODS AND COMPOSITIONS FOR THE TREATMENT OF SARS-COV-2” (priority 2020, published 2023)", "key": {"[1]": {"tested_on": "SARS-CoV-2", "test": "Checkerboard synergy study with remdesivir (ZIP model, synergyfinder)", "format": "cell-based"}, "[2]": {"tested_on": "SARS-CoV-2"}, "[3]": {"test": "in vitro", "conditions": "human"}, "[4]": {"tested_on": "SARS-CoV-2", "test": "microbe, parasite or virus in culture"}, "[5]": {"conditions": "human, oral; cited from earlier work"}, "[6]": {"tested_on": "SARS-CoV-2", "test": "microbe, parasite or virus in culture", "conditions": "Severe acute respiratory syndrome coronavirus 2, Calu-3, 48 h, read-out: Calu-3 CoV-2 EC50 [μM]"}, "[7]": {"test": "in vitro", "conditions": "human", "remark": "listed apart in the source", "procedure": "To assess cell viability, 2 μL of 50% Cell-Titer Glo (Promega No G7573) diluted in water was added to the cells and luminescence measured on an EnVision Plate Reader (Perkin Elmer).\nData analysis. […] Primary in vitro screen and the host cell cytotoxicity counter screen data were uploaded to Genedata Screener, Version 16.0.3-Standard. […] For the uninfected host cell cytotoxicity counter screens, 40 μM puromycin (Sigma) was used as the positive (inhibitory) control in HeLa-ACE2, HepG2 and HEK293T cells, and 30 μM puromycin (Sigma) was used as the positive (inhibitory) control for Calu-3 cells. For dose response experiments compounds were tested in technical triplicates on different assay plates and dose curves were fitted with the four parameter Hill Equation. Technical replicate data were analyzed using median condensing. Geometric means and geometric standard deviations are reported for compound activities (EC50s and CC50s) obtained in multiple independent biological experiments. […] Geometric means were calculated by computing the logarithm (base 10) of all values, calculating the mean of these logarithms, and taking the antilog of that mean. Geometric standard deviations were computed by taking the standard deviation of the log-transformed individual values and taking the antilog of that standard deviation. The geometric standard deviation is a unitless ratio and reported as ×÷ instead of +/−."}, "[8]": {"tested_on": "HeLa-ACE2 cells", "test": "cells", "format": "cell-based, human", "conditions": "Homo sapiens, HeLa-ACE2, read-out: HeLa-ACE-2 EC50 [μM] (Geomeans, n ≥ 2)"}, "[9]": {"tested_on": "SARS-CoV-2", "conditions": "Table 4"}, "[10]": {"conditions": "CC50 [μM] (Geomeans, n ≥ 2 except where indicated: *n = 1)"}, "[11]": {"conditions": "Severe acute respiratory syndrome coronavirus 2, HeLa-ACE2, 24 h, read-out: CoV-2 EC50 [μM] (Geomeans, n ≥ 2)"}, "[12]": {"conditions": "Severe acute respiratory syndrome coronavirus 2, HeLa-ACE2, read-out: SARS CoV-2 EC50 (μM)"}, "[13]": {"conditions": "Table 1, ZIP model, δ>10 synergy, δ<−10 antagonism, between additive"}}, "note": "Where a name gives a salt, the structure may show the parent alone. Read-outs that look alike come from different tables or passages of the source.", "data": [{"smiles": "Nc1nc(N)c2nc(CCc3ccc(C(=O)N[C@@H](CCC(=O)O)C(=O)O)cc3)cnc2n1", "note": "[10-deazaaminopterin]", "values": [{"measurement": "interaction with remdesivir", "setting": "[1]", "value": "synergized"}, {"measurement": "maximal efficacy", "setting": "[1]; compound alone, over the range of concentrations tested", "value": 40, "unit": "%"}, {"measurement": "maximal efficacy", "setting": "[1]; with addition of EC2 of remdesivir", "value": "~65", "unit": "%"}, {"measurement": "maximal efficacy", "setting": "[1]; with addition of EC24 of remdesivir", "value": "> 80", "unit": "%"}]}, {"smiles": "CCN(CC)CCCNc1ccnc2cc(Cl)ccc12", "note": "[AQ-13]", "values": [{"measurement": "Synergy score with remdesivir (δ)", "setting": "[1]; Table 3", "value": "−1.77"}, {"measurement": "HeLa-ACE2 CC50/CoV-2 EC50", "setting": "[2]", "value": 32.34}, {"measurement": "CC50", "setting": "[3]; [10]", "value": 25.9, "unit": "µM"}, {"measurement": "EC50", "setting": "[4]; [11]", "value": 0.8, "unit": "µM"}, {"measurement": "EC50", "setting": "[4]; [12]", "value": 0.8, "unit": "µM"}]}, {"smiles": "Nc1nc(Nc2ccc3c(c2)CC[C@@H](N2CCCC2)CC3)nn1-c1cc2c(nn1)-c1ccccc1CCC2", "note": "[BGB324/R-428]", "values": [{"measurement": "Synergy score with remdesivir (δ)", "setting": "[1]; Table 3", "value": 7.223}, {"measurement": "HeLa-ACE2 CC50/CoV-2 EC50", "setting": "[2]", "value": 13.05}, {"measurement": "CC50", "setting": "[3]; [10]", "value": 15.7, "unit": "µM"}, {"measurement": "Cmax", "setting": "[5]", "value": "~750", "unit": "nM"}, {"measurement": "t1/2", "setting": "[5]", "value": "~80 h (oral, humans)(30)"}, {"measurement": "EC50", "setting": "[4]; [11]", "value": 1.2, "unit": "µM"}, {"measurement": "EC50", "setting": "[4]; [12]", "value": 1.2, "unit": "µM"}]}, {"smiles": "COc1ccc2c(c1)[C@]1(CC1c1ccc3c(/C=C/c4ccc(CN5C[C@@H](C)O[C@@H](C)C5)cc4)n[nH]c3c1)C(=O)N2", "note": "(some centres unmarked) [CFI-400945]", "values": [{"measurement": "EC50", "setting": "[6]", "value": 3.36, "unit": "µM"}, {"measurement": "CC50", "setting": "[7]", "value": "> 19.8", "unit": "µM"}, {"measurement": "EC50", "setting": "[8]", "value": "> 0.117", "unit": "µM"}, {"measurement": "HeLa-ACE2 CC50/CoV-2 EC50", "setting": "[2]", "value": "<1.02"}, {"measurement": "HeLa-ACE2 SI CC50/CoV-2 EC50", "setting": "[2]", "value": "<1.02"}, {"measurement": "Calu3 SI CC50/CoV-2 EC50", "setting": "[9]", "value": ">5.88"}, {"measurement": "CC50", "setting": "[3]; [10]", "value": 7.18, "unit": "µM"}, {"measurement": "CC50", "setting": "[3]; HeLa-ACE2 Uninfected Tox CC50 [μM]", "value": 7.18, "unit": "µM"}, {"measurement": "EC50", "setting": "[4]; [11]", "value": "> 7", "unit": "µM"}, {"measurement": "EC50", "setting": "[4]; Severe acute respiratory syndrome coronavirus 2, HeLa-ACE2, read-out: HeLa-ACE2 CoV-2 EC50 [μM]", "value": "> 7", "unit": "µM"}]}, {"smiles": "CN1CCN(c2ccc(C(=O)NCc3cnc(C#N)nc3NCC(C)(C)C)cc2)CC1", "note": "[Dutacatib]", "values": [{"measurement": "Synergy score with remdesivir (δ)", "setting": "[1]; Table 3", "value": 2.955}, {"measurement": "HeLa-ACE2 CC50/CoV-2 EC50", "setting": "[2]", "value": ">13.43"}, {"measurement": "CC50", "setting": "[3]; [10]", "value": "> 36.1", "unit": "µM"}, {"measurement": "CC50", "setting": "[3]; Uninfected HeLa-ACE2 CC50 (μM)", "value": "> 36.1", "unit": "µM"}, {"measurement": "EC50", "setting": "[4]; [11]", "value": 2.69, "unit": "µM"}, {"measurement": "EC50", "setting": "[4]; [12]", "value": 2.69, "unit": "µM"}]}, {"smiles": "CCCCN(CCCC)CCC(O)c1cc2c(Cl)cc(Cl)cc2c2cc(C(F)(F)F)ccc12", "note": "(centres unmarked) [Halofantrine HCl]", "values": [{"measurement": "Synergy score with remdesivir (δ)", "setting": "[1]; Table 3", "value": "−3.509"}, {"measurement": "HeLa-ACE2 CC50/CoV-2 EC50", "setting": "[2]", "value": ">20.66"}, {"measurement": "CC50", "setting": "[3]; [10]", "value": "> 23.9", "unit": "µM"}, {"measurement": "CC50", "setting": "[3]; Uninfected HeLa-ACE2 CC50 (μM)", "value": "> 23.9", "unit": "µM"}, {"measurement": "Cmax", "setting": "[5]", "value": "~1000", "unit": "nM"}, {"measurement": "t1/2", "setting": "[5]", "value": "~72 h (human oral)(16, 17)"}, {"measurement": "EC50", "setting": "[4]; [11]", "value": 1.16, "unit": "µM"}, {"measurement": "EC50", "setting": "[4]; [12]", "value": 1.16, "unit": "µM"}]}, {"smiles": "CCCCC1CCc2cc(O)cc3c(CCN4CCN(c5cc(C)ccn5)CC4)c(C)n1c23", "note": "(centres unmarked) [KC 11404]", "values": [{"measurement": "Synergy score with remdesivir (δ)", "setting": "[1]; Table 3", "value": "−2.817"}, {"measurement": "HeLa-ACE2 CC50/CoV-2 EC50", "setting": "[2]", "value": ">8.39"}, {"measurement": "CC50", "setting": "[3]; [10]", "value": "> 20.9", "unit": "µM"}, {"measurement": "CC50", "setting": "[3]; Uninfected HeLa-ACE2 CC50 (μM)", "value": "> 20.9", "unit": "µM"}, {"measurement": "EC50", "setting": "[4]; [11]", "value": 2.5, "unit": "µM"}, {"measurement": "EC50", "setting": "[4]; [12]", "value": 2.5, "unit": "µM"}]}, {"smiles": "CCOC(=O)[C@@H]1O[C@H]1C(=O)N[C@@H](CC(C)C)C(=O)N1CCN(Cc2ccc(OC)c(OC)c2OC)CC1", "note": "[NCO 700]", "values": [{"measurement": "Synergy score with remdesivir (δ)", "setting": "[1]; Table 3", "value": 0.209}, {"measurement": "HeLa-ACE2 CC50/CoV-2 EC50", "setting": "[2]", "value": ">50.44"}, {"measurement": "CC50", "setting": "[3]; [10]", "value": "> 39.8", "unit": "µM"}, {"measurement": "CC50", "setting": "[3]; Uninfected HeLa-ACE2 CC50 (μM)", "value": "> 39.8", "unit": "µM"}, {"measurement": "EC50", "setting": "[4]; [11]", "value": 0.79, "unit": "µM"}, {"measurement": "EC50", "setting": "[4]; [12]", "value": 0.79, "unit": "µM"}]}, {"smiles": "C=CC(=O)Nc1cc(Nc2nccc(-c3cn(C)c4ccccc34)n2)c(OC)cc1N(C)CCN(C)C", "note": "[Osimertinib]", "values": [{"measurement": "Synergy score with remdesivir (δ)", "setting": "[1]; [13]", "value": "−0.722"}, {"measurement": "Synergy score with remdesivir (δ)", "setting": "[1]; Table 3", "value": "−0.722"}, {"measurement": "HeLa-ACE2 CC50/CoV-2 EC50", "setting": "[2]", "value": ">18.79"}, {"measurement": "CC50", "setting": "[3]; [10]", "value": "> 18.1", "unit": "µM"}, {"measurement": "CC50", "setting": "[3]; Uninfected HeLa-ACE2 CC50 (μM)", "value": "> 18.1", "unit": "µM"}, {"measurement": "Cmax", "setting": "[5]", "value": "~1500", "unit": "nM"}, {"measurement": "t1/2", "setting": "[5]", "value": "~42 h (human, oral)(33, 34)"}, {"measurement": "EC50", "setting": "[4]; [11]", "value": 0.962, "unit": "µM"}, {"measurement": "EC50", "setting": "[4]; [12]", "value": 0.962, "unit": "µM"}]}, {"smiles": "COc1ccc2c(O[C@@H]3C[C@H]4C(=O)N[C@]5(C(=O)NS(=O)(=O)C6CC6)C[C@H]5/C=C\\CCCCN(C)C(=O)[C@@H]4C3)cc(-c3nc(C(C)C)cs3)nc2c1C", "note": "[Simeprevir]", "values": [{"measurement": "HeLa-ACE2 CC50/CoV-2 EC50", "setting": "[2]", "value": ">2.81"}, {"measurement": "CC50", "setting": "[3]; [10]", "value": "> 22.2", "unit": "µM"}, {"measurement": "CC50", "setting": "[3]; Uninfected HeLa-ACE2 CC50 (μM)", "value": "> 22.2", "unit": "µM"}, {"measurement": "Cmax", "setting": "[5]", "value": "~32000", "unit": "nM"}, {"measurement": "t1/2", "setting": "[5]", "value": "~16 h (human oral)(21, 22)"}, {"measurement": "EC50", "setting": "[4]; [11]", "value": "> 7.88", "unit": "µM"}]}, {"smiles": "COC(=O)C1=C(C)NC(C)=C(C(=O)OC)C1c1cc([N+](=O)[O-])ccc1OCCCCNC[C@H](O)COc1ccccc1", "note": "[YM 161514]", "values": [{"measurement": "Synergy score with remdesivir (δ)", "setting": "[1]; [13]", "value": 0.601}, {"measurement": "Synergy score with remdesivir (δ)", "setting": "[1]; Table 3", "value": 0.60}, {"measurement": "EC50", "setting": "[8]", "value": "> 8.47", "unit": "µM"}, {"measurement": "HeLa-ACE2 CC50/CoV-2 EC50", "setting": "[2]", "value": 6.08}, {"measurement": "CC50", "setting": "[3]; [10]", "value": 11.3, "unit": "µM"}, {"measurement": "CC50", "setting": "[3]; Uninfected HeLa-ACE2 CC50 (μM)", "value": 11.3, "unit": "µM"}, {"measurement": "EC50", "setting": "[4]; [11]", "value": 1.86, "unit": "µM"}, {"measurement": "EC50", "setting": "[4]; [12]", "value": 1.86, "unit": "µM"}]}, {"smiles": "COc1ccc2c(c1)CN(C)CC2c1ccc(Cl)c(Cl)c1", "note": "(centres unmarked) [diclofensine]", "values": [{"measurement": "EC50", "setting": "[8]", "value": "> 9.59", "unit": "µM"}, {"measurement": "HeLa-ACE2 CC50/CoV-2 EC50", "setting": "[2]", "value": "<1.28"}, {"measurement": "CC50", "setting": "[3]; [10]", "value": 10.1, "unit": "µM"}, {"measurement": "CC50", "setting": "[3]; Uninfected HeLa-ACE2 CC50 (μM)", "value": "> 40", "unit": "µM"}, {"measurement": "Cmax", "setting": "[5]", "value": "~30", "unit": "nM"}, {"measurement": "t1/2", "setting": "[5]", "value": "~15 h (human, oral)(25)"}, {"measurement": "EC50", "setting": "[4]; [11]", "value": "> 7.89", "unit": "µM"}, {"measurement": "EC50", "setting": "[4]; [12]", "value": 6.06, "unit": "µM"}]}]}
